According to patent US7074801B1, “Nitrogen-containing condensed cyclic compound having a pyrazolyl group as a substituent group and pharmaceutical composition thereof” (Eisai Co., Ltd., priority 2001, dated 2006):
Counter-ions that a name gives are not always drawn. Like-named read-outs stand apart in the source and are kept apart here.

Test system: STAT6
Assay: Inhibitory test on STAT6 activation: IL-4-induced alkali phosphatase STAT6 reporter in 293 cells stably expressing the STAT6 gene and STAT6 reporter gene
Assay type: cell-based
Details: HEK293, 1 ng/ml human recombinant IL-4, 16 hours, 293 cells with STAT6 reporter, read-out: Inhibitory activity IC50 (concentration at which the alkali phosphatase activity induced by IL-4 was inhibited by 50%)
Protocol: The inhibitory action of the present compound on activation of STAT6 was evaluated according to the following experiments.
1) Construction of a STAT6 Reporter Gene
An oligonucleotide of SEQ ID NO:1 in which three STAT6-binding regions on a human immunoglobulin germline E gene promoter had been linked was mixed with its complementary chain, thermally denatured and annealed, and 5′- and 3′-ends thereof were cleaved with restriction enzymes Kpn I (Code No. 1068A, Takara Shuzo) and Xba I (Code No. 1093A, Takara Shuzo) respectively, and the resulting fragment was cloned into a Kpn I/Xba I site of pUG-BGH-PLAP vector (described in Molecular Pharmacology, 49:860–873, 1996). To induce a basic transcriptional factor, a TK promoter region of herpes virus was cloned into an Xba I/Hind III (Code No. 1060A, Takara Shuzo) site of the pUG-BGH-PLAP vector. To obtain a stably expressing cell strain, a neomycin resistance gene (PGK-neo expression cassette) was integrated with an Sal I (Code No. 1080A, Takara Shuzo) of this vector. Cloning of the TK promoter and PGK-neo expression cassette was carried out according to Molecular Pharmacology, 49:860–873, 1996.
The underlined sites are a Kpn I recognition site and Xba I recognition site respectively. 2) Construction of an STAT6 Expression Vector
An oligonucleotide of SEQ ID NO:2 containing an initiation codon of STAT6 gene and an oligonucleotide of SEQ ID NO:3 containing a stop codon were used, and total RNA was prepared from human peripheral blood cells by using RNeasy Mini kit (Code No. 74104, OIAGEN). Then, cDNA was prepared by reverse transcription reaction using Takara RNA LA PCR kit (Code No. RR012A, Takara Shuzo) and then subjected to PCR reaction with primers of SEQ ID NOS:2 and 3, to amplify the STAT6 gene. • (SEQ ID NO:2) 5′-[…]-3′ The underlined site is an EcoR I recognition site. • (SEQ ID NO:3) 5′-[…]-3′ The underlined site is an Xho I recognition site.
The PCR product was digested with EcoR I (Code No. 1040A, Takara Shuzo) and Xho I (1094A, Takara Shuzo), and the digested fragment was isolated on an agarose gel. The isolated fragment was integrated into a vector fragment obtained by digesting pcDNA3.1 (+) (Code No. U790-20, Invitrogen) vector with EcoRI/Xho I.
3) Introduction of the Gene and Preparation of a Stably Expressing Cell Strain
Human fetal kidney-derived 293 cells (American Type Culture Collection), 3.0×10^5 cells, were spread on a Falcon tissue culture 6-well plate (Code No. 35-3046, Becton Dickinson) and cultured overnight. 1.5 μg of the prepared STAT6 reporter gene, 1.5 μg of the STAT6 gene and 20 μl of lipofectamine (Code No. 18324-012, GIBCO BRL) were mixed in 0.3 ml OPTI-MEM medium (Code No. 31985-070) and left at room temperature for 20 minutes. Thereafter, 1.2 ml OPTI-MEM medium was further added to the cells washed with OPTI-MEM medium not containing fetal bovine serum, and the cells were cultured for 2 hours. 1.5 ml medium containing fetal bovine serum was added thereto, and the cells were cultured for additional 19 hours. The medium was exchanged with a fresh one, and Geneticin (Code No. G-5013, SIGMA) was added at a concentration of 1 mg/ml, and the cells were cultured, and chemical-resistant cells were selected. The resulting chemical-resistant cells were floated in a medium containing 1 mg/ml Geneticin, then spread at a density of 0.5 cell/well on a 96-well microplate (Code No. 35-3072, Becton Dickinson) and cloned to give a clone expressing alkali phosphatase in response to IL-4.
4) Inhibitory Test on STAT6 Activation
The cells stably expressing the STAT6 gene and STAT6 reporter gene and expressing alkali phosphatase in response to IL-4 were spread at a density of 5000 cells/180 μl/well on a 96-well microplate (Code No. 35-3072, Becton Dickinson) and cultured overnight. […]

| Compound | IC50 (Table 1) [nM] | IC50 (Table 2) [nM] |
| --- | --- | --- |
| N#Cc1ccc(-c2n[nH]cc2-c2ccc3ncn(-c4ccc(C#N)cn4)c3c2)cc1 [Example 148, 6-{6-[3-(4-Cyanophenyl)-1H-4-pyrazolyl]-1H-benzo[d]-imidazol-1-yl}nicotinonitrile trihydrochloride] | < 10 |  |
| Clc1ccccc1N1CCN(c2ncnc3ccc(-c4cn[nH]c4)cc23)CC1 [Example 287, 4-[4-(2-Chlorophenyl)piperazin-1-yl]-6-(1H-4-pyrazolyl)-quinazoline] | 10 to 100 |  |
| Fc1ccccc1-c1n[nH]cc1-c1ccc2ncc(-c3noc(C4CC4)n3)n2c1 [Example 583, 3-(5-Cyclopropyl-[1,2,4]oxadiazol-3-yl)-6-[3-(2-fluorophenyl)-1H-4-pyrazolyl]-imidazo[1,2-a]pyridine trihydrochloride] | < 10 |  |
| N#Cc1cc(N2CCN(c3ncnc4ccc(-c5cn[nH]c5)cc34)CC2)ccc1F [Example 1007, 2-Fluoro-5-{4-[6-(1H-4-pyrazolyl)-4-quinazolinyl]piperazin-1-yl}benzonitrile hydrochloride] |  | 10 to 100 |
| O=S(=O)(c1ccc(OC2CCN(c3ccnc4ccc(-c5c[nH]nc5C(F)(F)F)cc34)CC2)cc1)C(F)(F)F [Example 1034, 4-[4-(4-Trifluoromethylsulfonylphenoxy)piperidin-1-yl]-6-(3-trifluoromethyl-1H-pyrazol-4-yl)quinoline trihydrochloride] |  | 10 to 100 |
| Cc1n[nH]cc1-c1ccc2ncc(-c3ccc(CN4CCC[C@H]4C(N)=O)s3)n2c1 [Example 120, (2S)-1-({5-[6-(3-Methyl-1H-4-pyrazolyl)imidazo[1,2-a]-pyridin-3-yl]-2-thienyl}methyl)tetrahydro-1H-2-pyrrole carboxyamide trihydrochloride] | < 10 |  |
| Cc1n[nH]cc1-c1ccc2nccc(N3CCN(C(=O)N(C)CCN(C)C)CC3)c2c1 [Example 227, N-[2-(Dimethylamino)ethyl]-N-methyl-4-[6-(3-methyl-1H-4-pyrazolyl)-4-quinolyl]-1-piperazine carboxamide dihydrochloride] | 10 to 100 |  |
| COc1ccc(-c2n[nH]cc2-c2ccc3ncc(-c4noc(C5CC5)n4)n3c2)c(F)c1 [Example 580, 3-(5-Cyclopropyl-[1,2,4]oxadiazol-3-yl)-6-[3-(2-fluoro-4-methoxyphenyl)-1H-4-pyrazolyl]-imidazo[1,2-a]pyridine trihydrochloride] | < 10 |  |
| c1nc(N2CCN(C3CCCCC3)CC2)c2cc(-c3cn[nH]c3)ccc2n1 [Example 957, 4-(4-Cyclohexylpiperazin-1-yl)-6-(1H-pyrazol-4-yl)quinazoline tri-trifluoroacetate] |  | 10 to 100 |
| Cc1cc(-c2ccnc3ccc(-c4c[nH]nc4C(F)(F)F)cc23)on1 [Example 1070, 4-(3-Methylisoxazol-5-yl)-6-(3-trifluoromethyl-1H-pyrazol-4-yl) quinoline] |  | 10 to 100 |
| c1ccc(N2CCN(c3ncnc4ccc(-c5cn[nH]c5)cc34)CC2)nc1 [Example 936, 6-(1H-Pyrazol-4-yl)-4-(4-pyridin-2-yl-piperazin-1-yl)quinazoline tri-trifluoroacetate] |  | < 10 |
| O=C1CCCN1Cc1nc(-c2cnc3ccc(-c4c[nH]nc4-c4ccccc4F)cn23)no1 [Example 596, 1-(3-{6-[3-(2-Fluorophenyl)-1H-4-pyrazolyl]-imidazo[1,2-a]-pyridin-3-yl}-[1,2,4]oxadiazol-5-ylmethyl)-pyrrolidin-2-one di-trifluoroacetate] | < 10 |  |
| CS(=O)(=O)c1ccc(-c2ncnc3ccc(-c4c[nH]nc4-c4ccc(N5CCOCC5)cc4)cc23)s1 [Example 887, 4-(5-Methylsulfonylthiophen-2-yl)-6-[3-(4-morpholin-4-ylphenyl)-1H-pyrazol-4-yl] quinazoline] |  | 10 to 100 |
| COC1CCN(c2ccnc3ccc(-c4c[nH]nc4C)cc23)CC1 [Example 230, 4-(4-Methoxypiperidino)-6-(3-methyl-1H-4-pyrazolyl)quinoline dihydrochloride] | < 10 |  |
| CS(=O)(=O)c1cccc(N2CCN(c3ncnc4ccc(-c5cn[nH]c5)cc34)CC2)c1 [Example 946, 4-[4-(3-Methylsulfonylphenyl)piperazin-1-yl]-6-(1H-pyrazol-4-yl)quinazoline tri-trifluoroacetate] |  | < 10 |

The next lines start with the values.

| IC50 (Table 1) [nM] | IC50 (Table 2) [nM] | Compound |
| --- | --- | --- |
| < 10 |  | Fc1ccc(-c2n[nH]cc2-c2ccc3ncc(-c4noc(C(F)F)n4)n3c2)c(F)c1 [Example 589, 6-[3-(2,4-Difluorophenyl)-1H-4-pyrazolyl]-3-(5-difluoromethyl-[1,2,4]oxadiazol-3-yl)-imidazo[1,2-a]-pyridine trihydrochloride] |
| < 10 |  | Cc1ccc(C(=O)C(C)(C)NC(=O)c2ccc(-c3cnc4ccc(-c5cn[nH]c5)cn34)cc2F)c(F)c1 [Example 674, hydrochloride] |
| < 10 |  | O=C(Nc1nc2ccc(F)cc2s1)c1ccc(-c2cnc3ccc(-c4cn[nH]c4)cn23)cc1F [Example 669, N1-(6-Fluoro-1,3-benzothiazol-2-yl)-2-fluoro-4-[6-(1H-4-pyrazolyl)imidazo[1,2-a]pyridin-3-yl]benzamide dihydrochloride] |
|  | < 10 | COC1CCN(C(=O)c2ccc(-n3cnc4ccc(-c5c[nH]nc5-c5ccc(F)cc5)cc43)nc2)C1 (centres unmarked) [Example 725, 6-{6-[3-(4-Fluorophenyl)-1H-4-pyrazolyl]-1H-benzo[d]imidazol-1-yl}-pyridin-3-yl)-(3-methoxypyrrolidin-1-yl)methanone dihydrochloride] |
| < 10 |  | CC(C)c1nc(-c2cnc3ccc(-c4c[nH]nc4-c4ccccc4F)cn23)no1 [Example 605, 6-[3-(2-Fluorophenyl)-1H-4-pyrazolyl]-3-(5-isopropyl-[1,2,4]oxadiazol-3-yl)-imidazo[1,2-a]pyridine trihydrochloride] |
| < 10 |  | CNc1nnc(-c2cnc3ccc(-c4c[nH]nc4-c4ccc(F)cc4F)cn23)o1 [Example 561] |
| < 10 |  | CS(=O)(=O)c1cnc(-c2cnc3ccc(-c4c[nH]nc4-c4c(F)cccc4F)cn23)s1 [Example 549, 6-[3-(2,6-Difluorophenyl)-1H-pyrazol-4-yl]-3-(5-methylsulfonylthiazol-2-yl)imidazo[1,2-a]pyridine] |
|  | 10 to 100 | CS(=O)(=O)c1ccc(-c2ncnc3ccc(-c4c[nH]nc4-c4ccc(F)cc4)cc23)o1 [Example 900, 6-[3-(4-Fluorophenyl)-1H-pyrazol-4-yl]-4-(5-methylsulfonylfuran-2-yl) quinazoline] |
| < 10 |  | C[C@H](NC(=O)c1ccc(-c2cnc3ccc(-c4cn[nH]c4)cn23)cc1F)C(=O)c1ccc(F)cc1 [Example 672, N1-[(1S)-2-(4-Fluorophenyl)-1-methyl-2-oxoethyl]-2-fluoro-4-[6-(1H-4-pyrazolyl)imidazo[1,2-a]pyridin-3-yl]benzamide hydrochloride] |
| < 10 |  | CC(=O)NCCCOc1ccc(-c2cnc3ccc(-c4c[nH]nc4-c4ccc(F)cc4)cn23)cc1 [Example 87, N-[3-(4-{6-[3-(4-Fluorophenyl)-1H-4-pyrazolyl]imidazo-[1,2-a]pyridin-3-yl}phenoxy)propyl]acetamide] |
| < 10 |  | CN(C(=O)N1CCOCC1)c1ccc(-c2n[nH]cc2-c2ccc3ncc(-c4ccccn4)n3c2)cc1 [Example 534, Morpholine-4-carboxylic acid methyl(4-[4-(3-pyridin-2-ylimidazo[1,2-a]pyridin-6-yl)-1H-pyrazol-3-yl]phenyl} amide] |
